Data as given in paper PMC4865820, “Branched Peptide, B2088, Disrupts the Supramolecular Organization of Lipopolysaccharides and Sensitizes the Gram-negative Bacteria” (Scientific Reports, 2016).
Positions of bridges follow the written chain, without caps; N, C: chain ends. Non-standard residues stand in square brackets, D forms with d. Residues, ends and D or L forms follow the SMILES beside them. Chains are numbered I, II in the order given. *: point of attachment. X1 = CC[C@H](C)CCCCC(=O)*; Dab = NCC[C@H](N)C(=O)O

How the values were obtained:
[1] = system: P. aeruginosa ATCC 9027 and P. aeruginosa DM4877/07 strains; experiment: Time-kill kinetics; format: cell-based; details: ¼ × MIC of B2088 alone, 0–24 h, MHB, 37 °C
Source text: It is likely that disruption of the supramolecular organization of LPS could enhance the intracellular accessibility of the antibiotics thus rendering the micro-organisms susceptible at sub-lethal concentration of the drugs. To confirm this, we performed time-kill kinetics at sub-lethal concentration of B2088, antibiotics and their combinations against two different P. aeruginosa strains. […] The effect was quite remarkable for the B2088-gatifloxacin combination as >5 log10 reduction in CFU/ml was apparent in less than 2 h against two different P. aeruginosa strains.
Figure 6 Antimicrobial efficacy of B2088-antibiotics combinations. Time-kill kinetics showing synergism between B2088 and other antibiotics. (a) B2088 and gatifloxacin against P. aeruginosa ATCC 9027 strains. (b) B2088 and gatifloxacin against P. aeruginosa DM4877/07 strains. (c) B2088 and tobramycin against P. aeruginosa DM4877/07 strains. (d) B2088 and chloramphenicol against P. aeruginosa DM4877/07 strains. Note that for simplicity B2088 and the antibiotics are represented by single letter codes (B – B2088, G – gatifloxacin, T – tobramycin, C – chloramphenicol).
The kinetics of bactericidal action of is assessed by using each drug alone or in combinations at their sub-inhibitory MICs. […]

[2] = system: FITC-labelled LPS; experiment: FITC-LPS fluorescence interaction assay; format: binding; details: 5 μg/ml FITC-LPS, ex 485/em 515 nm, 25 °C
Source text: To confirm the findings from ITC experiments, we examined the ultrastructure of LPS or the LPS/B2088 complex by electron microscopy. TEM analysis of the LPS indicated a ribbon-like structure (Fig. 3a), consistent with previous studies. For the LPS-B2088 complex, the peptide:LPS ratios were chosen to epitomize the initial (high peptide:LPS) or final (low peptide:LPS) injections of the ITC curves shown in Fig. 2a–c. At low peptide:LPS ratio (~0.04), more electron-dense surface appeared presumably due to binding of the peptide to LPS may cause partial/complete neutralization of the negative charges and the ribbon-like structure of LPS remained intact (Fig. 3b). […]
The interaction between FITC-LPS was determined by monitoring the change in fluorescence emission intensity (λex = 485 nm and λem = 515 nm) using a Quanta Master spectrophotometer (Photon Technology International, NJ, USA) with a constant slit width of 0.5 nm at 25 °C. Briefly, the emission intensity of 5 μg/ml of FITC-LPS was monitored continuously in a 1 ml cuvette until it remained constant. 10 μl a concentrated stock solution of B2088 was added and the changes in fluorescence intensity were recorded as before.

[3] = system: human corneal epithelial (hTCEpi) cells
Source text: To assess the safety of B2088 as a part of preclinical assessment, we used the xCELLigence system for the real-time analysis of cytotoxicity.

[4] = system: lipid A; experiment: BODIPY TR cadaverine (BC) displacement assay with lipid A; format: binding; details: 5 mM HEPES pH 7.4; fluorescence ex 580/em 620 nm
Source text: To investigate the interaction of B2088 with LPS, we performed the BODIPY TR cadaverine (BC) displacement assay reported by Wood et al.[22]. The probe binds to the lipid A part of the LPS with moderate affinity and can be displaced by putative LPS-binding molecules. The method was used to probe the affinity of polycationic molecules and LPS binding proteins. First, we determined the affinity of polymyxin B (PMB), a lipopeptide cyclic antibiotic which has a high affinity for LPS. […] Figure 1a,b show the concentration-dependent displacement of LPS/lipid A-bound BC upon addition of B2088. […] To confirm the importance of branching, we determined the BC50 for a linear retrodimer having the amino acid sequence, […] (Fig. 1d). […]
The BC displacement assay was used to determine the ability of each peptide to bind to LPS. […] The maximum fluorescence intensity (Fmax) was determined using a mixture containing 100 μl PMB (50 μg/ml) and 100 μl BC:LPS solution, as PMB is considered the ‘gold standard’ for LPS-sequestering agents. The minimum fluorescence intensity (F0) was measured using 200 μl of BC:LPS mixture to determine the background noise for this experiment. Fluorescence measurements for each peptide (F) were determined using a microplate reader (Model: TECAN Infinite 200, Austria) with excitation and emission wavelengths set at 580 nm and 620 nm respectively. […]

[5] = system: LPS (E. coli serotype 055:B5); details: ref Torrent et al. [24]; cited from earlier work
Source text: To investigate the interaction of B2088 with LPS, we performed the BODIPY TR cadaverine (BC) displacement assay reported by Wood et al.[22]. The probe binds to the lipid A part of the LPS with moderate affinity and can be displaced by putative LPS-binding molecules. The method was used to probe the affinity of polycationic molecules and LPS binding proteins. First, we determined the affinity of polymyxin B (PMB), a lipopeptide cyclic antibiotic which has a high affinity for LPS.

Structure (SMILES) | Time-kill outcome [1] | Peptide concentration above which dequenching of FITC-LPS fluorescence occurred [2] | Change in CI values with time [3] | ED50 (50% displacement of BC dye from lipid A) [4] | ED50 (BC displacement from LPS), literature value [5]
CC(C)[C@H](NC(=O)[C@H](CCCCN)NC(=O)[C@H](CCCNC(=N)N)NC(=O)CNC(=O)[C@@H](N)CCCNC(=N)N)C(=O)N[C@H](C(=O)N[C@@H](CCCNC(=N)N)C(=O)N[C@@H](CCCNC(=N)N)C(=O)NCCCC[C@H](NC(=O)[C@H](CCCNC(=N)N)NC(=O)[C@H](CCCNC(=N)N)NC(=O)[C@@H](NC(=O)[C@@H](NC(=O)[C@H](CCCCN)NC(=O)[C@H](CCCNC(=N)N)NC(=O)CNC(=O)[C@@H](N)CCCNC(=N)N)C(C)C)C(C)C)C(=O)N[C@@H](CCCCN)C(=O)O)C(C)C [B2088] (I: H-RGRKVVRRKK-OH / II: H-RGRKVVRR; amide I:9-II:C; N-terminus and C-terminus assumed) | no bacteriostatic or bactericidal activity | above 25 μg/ml | significant increase in CI values | 700 ± 140 nM | 
CC[C@H](C)CCCCC(=O)N[C@@H](CCN)C(=O)N[C@H](C(=O)N[C@@H](CCN)C(=O)N[C@H]1CCNC(=O)[C@H]([C@@H](C)O)NC(=O)[C@H](CCN)NC(=O)[C@H](CCN)NC(=O)[C@H](CC(C)C)NC(=O)[C@@H](Cc2ccccc2)NC(=O)[C@H](CCN)NC1=O)[C@@H](C)O [Polymyxin B, polymyxin B, reference compound] (X1-[Dab]T[Dab][Dab][Dab][dF]L[Dab][Dab]T; lactam 4-C (inferred); N-terminus assumed) |  |  |  |  | 2500 ± 100 nM
